In US20210379062A1, “The use of a H3R inverse agonist for the treatment of excessive daytime sleepiness associated with parkinson's disease (PD)” (Novartis AG, priority 2018, published 2021):
Like-named read-outs stand apart in the source and are kept apart here.

Experiments:
[1] = system: tele-methylhistamine (tMeHA); assay: Ex vivo PD determination: brain tele-methylhistamine time course in rats; set-up: species or system rat; conditions: 10 mg/kg oral; for effect on tMeHA levels: brain
Protocol: Male Sprague-Dawley rats (Shanghai SLAC Laboratory Animal Co. LTD) of 6-7 weeks age were used. Animals were housed in a temperature and humidity-controlled environment on a 12 h light/dark. All animals had free access to food and water. All procedures were approved by Institutional Animal Care and Use Committee of ChemPartner Co., LTD (IACUC Protocol NO: A998HL0002).
For bioanalysis of brain tissue tele-methylhistamine samples were further processed.
One aliquot of the stock solution was diluted using ethanol/phosphate buffer pH 7.4 (85:15, v/v) to achieve a series working solutions. The brain homogenate was centrifuged at 12000 rpm for 5 min at 4° C. Then 10 μL supernatant of the brain homogenate sample was added to 60 μL internal standard (d3-1-methyl-histamine, 20 ng/mL). The mixture was vortexed for 2 min and centrifuged at 12000 rpm for 5 min at 4° C. Finally, 60 μL supernatant was added and 3 μL supernatant was injected into LC-MS/MS for analysis (Agilent 6410, triple quadrupole mass spectrometer, Mobile phase A: H2O— 0.1% NH3, Mobile phase B: methanol— 0.1% NH3, Column: Ultimate XB-C18 (2.1×50 mm, 5 μm, Flow rate: 0.45 mL/min, temperature: 40° C.).

[2] = target: T1, Human histamine H3 receptor (Homo sapiens, UniProt Q9Y5N1); assay: Radioligand binding assay with [3H]-N-α-methylhistamine; conditions: human recombinant H3R, 1.0 nM [3H]-N-α-methylhistamine, Cheng-Prusoff
T1 construct: purchased PerkinElmer
T1 sequence (Q9Y5N1 whole entry): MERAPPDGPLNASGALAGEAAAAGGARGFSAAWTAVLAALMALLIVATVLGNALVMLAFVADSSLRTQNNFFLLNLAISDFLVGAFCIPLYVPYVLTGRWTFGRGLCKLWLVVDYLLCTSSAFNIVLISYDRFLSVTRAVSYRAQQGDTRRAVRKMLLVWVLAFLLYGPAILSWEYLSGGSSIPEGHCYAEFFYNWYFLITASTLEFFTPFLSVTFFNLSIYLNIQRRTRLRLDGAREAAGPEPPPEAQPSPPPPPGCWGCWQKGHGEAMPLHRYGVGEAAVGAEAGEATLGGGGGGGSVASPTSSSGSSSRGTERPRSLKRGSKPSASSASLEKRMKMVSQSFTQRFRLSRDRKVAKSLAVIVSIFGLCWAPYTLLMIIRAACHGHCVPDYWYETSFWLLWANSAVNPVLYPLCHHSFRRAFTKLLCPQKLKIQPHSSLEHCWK
Protocol: Human histamine H3 receptor membrane (PerkinElmer) were incubated with 1.0 nM [^3H]—N-α-methylhistamine (PerkinElmer) in the presence or absence of increasing concentrations of ligands for H3 receptor competition binding. The binding incubations were in a final volume of 0.1 ml buffer (50 mMTris pH 7.5, 5 mM MgCl2) at 28° C. for 120 minutes. Thioperamide (10 μM) was used to define non-specific binding.
All binding reactions were terminated by transferring 70 μl binding reaction from the reaction plate into filtration plates (Zeba 96-well Spin Desalting Plates, Thermo Scientific), followed by centrifugation at 1000 g for 2 min to collect the protein with bound radioligand. 200 μl of microscint-40 were added to determine the bound radiolabel by a Wallac Microbeta Trilux 2450 (Perkin Elmer). For all radioligand competition binding assays, IC50 values and Hill slopes were determined by GraphPad Prism: log(inhibitor) vs. response with variable slope. Ki was calculated using the equation in Biochem. Pharmacol. 1973. 22 (23), 3099-3108, from Cheng and Prusoff: Ki=IC50/{1+([radioligand]/Kd)}.

Rat brain and plasma PK = assay type: in vivo; conditions: 10 mg/kg oral, rats
H3 receptor = assay: Ex vivo receptor occupancy assay in rat frontal cortex; conditions: rats; for dose that resulted in H3 receptor occupancy of 80-90%: oral dosing, 1 h after compound administration
Protocol: Male Sprague-Dawley rats (from Shanghai SLAC Laboratory Animal CO. LTD) at the age of 5-6 weeks were used. The animals were housed in a temperature and humidity-controlled environment on a 12 h light/dark cycle with food and water available ad libitum. All the procedures were approved by Institutional Animal Care and Use Committee of Chempartner Co., LTD (IACUC Protocol NO: A998HL0076).
Compounds were dissolved in 50 mM citrate buffer (pH 3.5), or saline. The compound was then diluted stepwise to the final concentration with vehicle. Animals were dosed by p.o. or i.v. in 1 ml/kg bodyweight.
At each time point, rats were decapitated immediately. Intact brain was removed, immersed and washed in pre-cooled saline. After drying with filter paper, frontal cortex was dissected with a double-blade with an about 30° angle starting at ⅓ of anterior rat brain (weight of most brain tissues around 70±10 mg). Brain tissue was transferred into a pre-weighed tube with homogenizer beads. The tubes were weighed again and the tissue net weight was recorded. Tissue sampling was done on ice with intervals of 1 min. Then, 50 mM HEPES (Gibco® by Life Technologies) buffer were added (equivalent to 3.75 μl/mg tissue weight) followed by homogenization (frequency 30/sec for 20 sec, TissueLyser, Quiagen).
The crude homogenate samples of rat frontal cortex were used to measure H3 receptor binding as described above with [^3H]—N-α-methylhistamine as radioligand. The protein concentration of each sample was determined by Pierce BCA Protein Assay Kit (Thermo).
The cortical homogenate was added to a 96-well plate containing [^3H]—N-α-methylhistamine (0.1 nM), in a volume of 0.2 ml (final protein concentration 4 μg/μl), incubated at 28° C. for 15 min and the reaction was stopped by rapid filtration using a filtration plate (Millipore multiscreen GF/B plate). The filters were washed three times with ice-cold wash buffer (50 mM Tris, pH 7.5) and 250 μl of Microscint-40 were added followed by determination of the bound radiolabel with a Wallac Microbeta Trilux 2450 (Perkin Elmer). Nonspecific binding was determined in the presence of 10 μM thioperamide. Each data point was obtained from a total of at least four animals. The inhibition of specific [^3H]NAMH binding, calculated as relative to vehicle-treated samples, was determined to provide an indication of receptor occupancy by the compound. The dose-dependent % RO and time course were analyzed using GraphPad Prism. The dose response was fit using GraphPad Prism: log(inhibitor) vs. response with variable slope.

[3] = cited from earlier work
[4] = 100-200 mg/day, two weeks treatment, excessive sleepiness associated with PD

Structure (SMILES) | time at which tMeHA increase is first observed [1] [h] | tMeHA level at 8 h ([1]; 8 h) | effect on tMeHA levels [1] | Ki [2] [nM] | rate of exposure-decline in brain, relative to Compound (I) (Rat brain and plasma PK) | total brain exposure (Rat brain and plasma PK) | brain exposure (Rat brain and plasma PK; 8 h time point) | RO (H3 receptor; 10 mg/kg oral, 7 h) [%] | initial RO (H3 receptor; 10 mg/kg oral, time not given) [%] | dose that resulted in H3 receptor occupancy of 80-90% (H3 receptor) [mg/kg] | initial RO (H3 receptor; 300 mg/kg oral, 0.5 h) [%] | RO (H3 receptor; 300 mg/kg oral, 8 h after compound administration) [%] | Epworth Sleeping Scale scores [3, 4] | sleep latency in the Maintenance of Wakefulness Test [3, 4] | Epworth Sleeping Scale scores ([3]; 200-400 mg/day for four weeks)
O=C(c1ccc(CN2CCOCC2)cc1)N1CCN(C2CC2)CC1 [bavisant, reference compound] | 1 | stayed elevated | delayed increase | 102 | much slower | very high | high | 37 | 90 | 10 |  |  |  |  | 
Clc1ccc(CCCOCCCN2CCCCC2)cc1 [pitolisant, reference compound] |  |  | no increase |  |  | very low |  |  |  | 300 | ~90 | 40 |  |  | 
NC(=O)C[S+]([O-])C(c1ccccc1)c1ccccc1 (stereo not drawn) [modafinil, 2-(benzhydrylsulfinyl)acetamide] |  |  |  |  |  |  |  |  |  |  |  |  | improved | but not sleep latency | no improvement
